Reference: ChEMBL document CHEMBL5614367, “Hydroxamic acid hybrids: Histone deacetylase inhibitors with anticancer therapeutic potency” (Eur J Med Chem, 2023)

Key:
MV4-11 = test: Cytotoxicity against human MV4-11 cells assessed as reduction in cell growth incubated for 24 hrs by MTT assay; format: functional, cell-based; conditions: MV4-11, 24 h
Daudi = test: Cytotoxicity against human Daudi cells assessed as reduction in cell growth incubated for 24 hrs by MTT assay; format: functional, cell-based
A549 [1] = test: Cytotoxicity against human A549 cells assessed as reduction in cell growth incubated for 24 hrs by MTT assay; format: functional, cell-based; conditions: A549, 24 h
MCF7 [2] = test: Cytotoxicity against human MCF7 cells assessed as reduction in cell growth incubated for 24 hrs by MTT assay; format: functional, cell-based; conditions: MCF7, 24 h
Histone deacetylase 8 = molecular target: T1, Histone deacetylase 8 (Homo sapiens, UniProt Q9BY41); test: Inhibition of HDAC8 (unknown origin) using R-H-K(Ac)-K(Ac)-AFC as fluoregenic substrate by fluorescence based analysis
T1 sequence (Q9BY41 whole entry): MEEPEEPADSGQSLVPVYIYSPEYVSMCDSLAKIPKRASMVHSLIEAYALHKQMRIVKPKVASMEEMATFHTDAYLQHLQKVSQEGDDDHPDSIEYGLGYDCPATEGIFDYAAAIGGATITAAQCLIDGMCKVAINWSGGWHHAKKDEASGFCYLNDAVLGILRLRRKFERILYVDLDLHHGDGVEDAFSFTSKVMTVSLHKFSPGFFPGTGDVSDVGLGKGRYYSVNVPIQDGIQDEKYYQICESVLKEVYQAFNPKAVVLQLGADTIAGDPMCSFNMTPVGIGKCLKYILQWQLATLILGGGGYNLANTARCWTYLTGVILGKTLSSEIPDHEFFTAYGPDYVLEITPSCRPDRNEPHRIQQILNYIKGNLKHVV

[3] = molecular target: T2, Protein deacetylase HDAC6 (Homo sapiens, UniProt Q9UBN7); test: Inhibition of HDAC6 (unknown origin)
T2 sequence (Q9UBN7 whole entry): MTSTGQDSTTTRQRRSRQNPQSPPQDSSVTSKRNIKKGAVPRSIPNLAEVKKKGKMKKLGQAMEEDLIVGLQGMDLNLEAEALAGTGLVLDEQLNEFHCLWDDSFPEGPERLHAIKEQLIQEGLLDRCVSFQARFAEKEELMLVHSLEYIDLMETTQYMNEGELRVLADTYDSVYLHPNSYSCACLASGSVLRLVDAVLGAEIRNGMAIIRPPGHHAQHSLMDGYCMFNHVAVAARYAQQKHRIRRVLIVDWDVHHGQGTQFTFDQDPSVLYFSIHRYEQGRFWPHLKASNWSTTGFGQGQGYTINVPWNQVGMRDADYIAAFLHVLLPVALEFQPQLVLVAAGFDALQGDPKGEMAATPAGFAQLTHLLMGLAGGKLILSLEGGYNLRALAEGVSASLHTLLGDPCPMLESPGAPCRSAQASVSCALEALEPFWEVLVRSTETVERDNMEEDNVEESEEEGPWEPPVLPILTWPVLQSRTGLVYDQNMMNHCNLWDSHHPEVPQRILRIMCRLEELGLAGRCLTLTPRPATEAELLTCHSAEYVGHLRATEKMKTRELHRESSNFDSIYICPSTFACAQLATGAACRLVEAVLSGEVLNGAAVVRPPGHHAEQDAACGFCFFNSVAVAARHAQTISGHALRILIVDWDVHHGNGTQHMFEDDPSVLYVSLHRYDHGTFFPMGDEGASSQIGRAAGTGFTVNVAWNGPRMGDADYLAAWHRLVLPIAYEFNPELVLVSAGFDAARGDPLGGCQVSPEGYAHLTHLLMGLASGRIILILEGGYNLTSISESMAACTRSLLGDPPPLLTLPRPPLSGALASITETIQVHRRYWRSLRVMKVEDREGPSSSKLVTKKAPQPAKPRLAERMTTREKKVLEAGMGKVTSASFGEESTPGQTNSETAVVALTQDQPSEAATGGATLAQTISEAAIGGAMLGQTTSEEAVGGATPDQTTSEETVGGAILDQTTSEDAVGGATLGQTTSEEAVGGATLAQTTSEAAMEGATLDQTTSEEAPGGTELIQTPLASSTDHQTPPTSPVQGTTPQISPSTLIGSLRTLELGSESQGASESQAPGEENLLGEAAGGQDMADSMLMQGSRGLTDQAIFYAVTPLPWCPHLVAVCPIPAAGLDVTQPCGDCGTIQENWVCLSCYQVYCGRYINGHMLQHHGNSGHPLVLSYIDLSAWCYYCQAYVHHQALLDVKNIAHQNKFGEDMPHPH

A549 [4] = test: Antiproliferative activity against human A549 cells
MDA-MB-231 = test: Antiproliferative activity against human MDA-MB-231 cells
HL-60 = test: Antiproliferative activity against human HL-60 cells; format: functional, cell-based
A-375 = test: Antiproliferative activity against human A-375 cells; format: functional, cell-based
SGC-7901 = test: Antiproliferative activity against human SGC-7901 cells; format: functional, cell-based
HCT-116 [5] = test: cells; conditions: Homo sapiens
Description: Antiproliferative activity against human HCT-116 cells

MCF7 [6] = test: cells; conditions: Homo sapiens
Description: Antiproliferative activity against human MCF7 cells

U-87 MG = test: Antiproliferative activity against human U-87 MG cells; format: functional, cell-based, U-87MG ATCC
SCC-25 = test: Antiproliferative activity against human SCC-25 cells; format: functional, cell-based
[7] = Cytotoxicity against HEK293T cells; format: toxicity, cell-based, HEK-293T; conditions: human
A549 [8] = test: Antiproliferative activity against human A549 cells assessed as inhibition of cell growth incubated for 48 hrs by SRB assay; format: functional, cell-based; conditions: A549, 48 h
HCT-116 [9] = test: cells; format: functional, cell-based; conditions: Homo sapiens, HCT-116, 48 h
[10] = Cytotoxicity against human L02 cells; format: toxicity, cell-based
[11] = Cytotoxicity against human BEAS-2B cells; format: toxicity, cell-based
HepG2 = test: Antiproliferative activity against human HepG2 cells; format: functional, cell-based
Jurkat = test: Antiproliferative activity against human Jurkat cells; format: functional, cell-based
Histone deacetylase 1 = Histone deacetylase 1 (Homo sapiens, UniProt Q13547); test: Inhibition of HDAC1 (unknown origin)
Sequence of Histone deacetylase 1 (Q13547 whole entry): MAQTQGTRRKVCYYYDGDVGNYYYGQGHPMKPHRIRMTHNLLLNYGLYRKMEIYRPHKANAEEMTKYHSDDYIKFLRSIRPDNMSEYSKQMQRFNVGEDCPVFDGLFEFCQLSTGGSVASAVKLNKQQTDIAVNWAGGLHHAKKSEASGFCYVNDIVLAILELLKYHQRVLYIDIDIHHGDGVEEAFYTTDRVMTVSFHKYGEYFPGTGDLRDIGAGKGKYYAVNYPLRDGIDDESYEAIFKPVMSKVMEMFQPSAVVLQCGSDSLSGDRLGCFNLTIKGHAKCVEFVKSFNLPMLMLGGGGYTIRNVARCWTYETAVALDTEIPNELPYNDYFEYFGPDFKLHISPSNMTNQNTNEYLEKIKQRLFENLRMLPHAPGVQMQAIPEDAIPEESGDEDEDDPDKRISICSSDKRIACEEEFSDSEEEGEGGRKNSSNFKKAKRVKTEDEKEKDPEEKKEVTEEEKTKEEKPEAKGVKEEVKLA

[12] = molecular target: Tyrosine-protein kinase JAK2 (Homo sapiens, UniProt O60674); test: Inhibition of JAK2 (unknown origin)
Sequence of Tyrosine-protein kinase JAK2 (O60674 whole entry): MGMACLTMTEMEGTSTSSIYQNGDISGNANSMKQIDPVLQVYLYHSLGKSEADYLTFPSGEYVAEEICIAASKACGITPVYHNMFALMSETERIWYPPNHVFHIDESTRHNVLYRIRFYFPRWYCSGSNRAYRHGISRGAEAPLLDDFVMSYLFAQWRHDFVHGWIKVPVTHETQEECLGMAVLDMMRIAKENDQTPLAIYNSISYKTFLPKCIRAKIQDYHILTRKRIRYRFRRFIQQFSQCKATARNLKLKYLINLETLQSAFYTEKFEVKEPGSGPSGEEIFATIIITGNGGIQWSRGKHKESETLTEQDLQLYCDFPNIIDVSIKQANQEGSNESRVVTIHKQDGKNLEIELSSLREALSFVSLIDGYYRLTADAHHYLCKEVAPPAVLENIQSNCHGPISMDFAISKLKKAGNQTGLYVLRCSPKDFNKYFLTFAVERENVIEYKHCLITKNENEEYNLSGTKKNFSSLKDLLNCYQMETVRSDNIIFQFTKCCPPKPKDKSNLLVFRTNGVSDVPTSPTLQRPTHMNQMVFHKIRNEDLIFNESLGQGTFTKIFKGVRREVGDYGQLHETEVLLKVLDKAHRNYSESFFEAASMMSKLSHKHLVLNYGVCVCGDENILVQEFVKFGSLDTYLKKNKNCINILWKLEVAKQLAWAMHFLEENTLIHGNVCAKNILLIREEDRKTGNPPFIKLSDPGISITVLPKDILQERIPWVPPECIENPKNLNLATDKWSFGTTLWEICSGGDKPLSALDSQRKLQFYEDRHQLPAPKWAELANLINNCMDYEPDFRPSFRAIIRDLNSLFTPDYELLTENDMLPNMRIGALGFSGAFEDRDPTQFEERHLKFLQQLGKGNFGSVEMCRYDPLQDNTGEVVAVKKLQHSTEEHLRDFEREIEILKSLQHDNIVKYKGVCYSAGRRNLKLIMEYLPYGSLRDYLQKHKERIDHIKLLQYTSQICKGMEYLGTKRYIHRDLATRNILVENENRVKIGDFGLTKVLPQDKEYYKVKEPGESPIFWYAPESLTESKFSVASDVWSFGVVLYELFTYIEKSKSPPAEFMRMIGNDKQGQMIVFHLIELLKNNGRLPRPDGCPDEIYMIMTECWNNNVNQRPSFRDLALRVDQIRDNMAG

SW-620 = test: Antiproliferative activity against human SW620 cells incubated for 48 hrs by colorimetric method; format: functional, cell-based; conditions: SW-620, 48 h
PC-3 = test: Antiproliferative activity against human PC-3 cells incubated for 48 hrs by colorimetric method; format: functional, cell-based; conditions: PC-3, 48 h
NCI-H23 = test: Antiproliferative activity against human NCI-H23 cells incubated for 48 hrs by colorimetric method; format: functional, cell-based; conditions: NCI-H23, 48 h
[13] = molecular target: T2, Protein deacetylase HDAC6; test: Inhibition of HDAC6 (unknown origin) incubated for 30 mins in presence of fluorimetric assay

O=C(CCCCCN1C(=O)c2ccccc2NC(=O)c2cc3ccccc3cc21)NO
IC50 (MV4-11): 93 nM
IC50 (Daudi): 93 nM
IC50 (A549 [1]): 93 nM
IC50 (MCF7 [2]): 93 nM
IC50 (Histone deacetylase 8): 183 nM

O=C(Cc1ccc(C(=O)NO)cc1)Nc1ccc2ncnc(Nc3ccc(Cl)c(F)c3)c2c1
IC50 [3]: 1490 nM
IC50 (A549 [4]): 2200 nM
IC50 (MDA-MB-231): 2200 nM
IC50 (HL-60): 2200 nM
IC50 (A-375): 2200 nM
IC50 (SGC-7901): 2200 nM
IC50 (HCT-116 [5]): 2200 nM
IC50 (MCF7 [6]): 2200 nM

COc1ccc(-c2ccc(C(=O)N3CCc4c(cc(Cl)c(C(=O)NO)c4Cl)C3)cc2)cc1
IC50 [3]: 8.7 nM
IC50 (U-87 MG): 4010 nM
IC50 (SCC-25): 4010 nM
IC50 [7]: 51200 nM
IC50 (MCF7 [6]): 4010 nM

O=C(NO)c1ccc(CNc2cccc3cc(-c4cccnc4)cnc23)cc1
IC50 (A549 [8]): 1290 nM
IC50 (HCT-116 [9]): 1290 nM

CCCOc1ccc2c(OCCCCCCCC(=O)NO)cc(=O)oc2c1
IC50 [10]: > 50000 nM
IC50 [11]: > 50000 nM

COc1cccc(Nc2nc(Nc3ccc(NC(=O)CCCCCCC(=O)NO)cc3)ncc2C)c1
IC50 (A549 [4]): 140 nM
IC50 (HepG2): 140 nM
IC50 (MDA-MB-231): 140 nM
IC50 (Jurkat): 140 nM
IC50 (Histone deacetylase 1): 31.9 nM
IC50 [12]: 0.5 nM

Cc1ccc(Cn2cnc3cc(/C=C/C(=O)NO)ccc3c2=O)cc1
IC50 (SW-620): 670 nM
IC50 (PC-3): 670 nM
IC50 (NCI-H23): 670 nM
IC50 [13]: 33 nM

COCCOc1ccc2c(OCCCCCCCC(=O)NO)cc(=O)oc2c1
IC50 [10]: > 50000 nM
IC50 [11]: > 50000 nM

O=C(CCCCCN1C(=O)c2ccccc2/C=C\c2ccccc21)NO
IC50 (MV4-11): 93 nM
IC50 (Daudi): 93 nM
IC50 (A549 [1]): 93 nM
IC50 (MCF7 [2]): 93 nM
IC50 (Histone deacetylase 8): 183 nM

O=C(CCCCCN1C(=O)c2ccccc2NC(=O)c2ccccc21)NO
IC50 (MV4-11): 93 nM
IC50 (Daudi): 93 nM
IC50 (A549 [1]): 93 nM
IC50 (MCF7 [2]): 93 nM
IC50 (Histone deacetylase 8): 183 nM
